Laboratory results taken from patent US10550124B2, “Atropisomerism for increased kinase inhibitor selectivity” (SAN DIEGO STATE UNIVERSITY RESEARCH FOUNDATION, priority 2015, dated 2020).
pIC50: −log10 of the molar value.

Experiments:
Assay type in all cases: biochemical
Src kinase = Src kinase (Homo sapiens, UniProt P12931); assay: Z′-LYTE kinase inhibition assay, Src
Description: Based on the observed stereochemical stabilities, we chose 1f, 2e, and 2f for further study and obtained inhibition data against Src kinase from Life Technologies' Z′-LYTE™ kinase assay (Scheme 3).
(§1) All samples were sent out to Life Technologies to obtain kinase inhibition data. A brief description of the assays and analyses are included below.
(§2) Assay Theory (SelectScreen® Kinase Profiling Services (Life Technologies, Madison, Wis. USA). The Z′-LYTE® biochemical assay employs a fluorescence-based, coupled-enzyme format and is based on the differential sensitivity of phosphorylated and non-phosphorylated peptides to proteolytic cleavage. The peptide substrate is labeled with two fluorophores one at each end—that make up a FRET pair.
(§3) In the primary reaction, the kinase transfers the gamma-phosphate of ATP to a single tyrosine, serine or threonine residue in a synthetic FRET-peptide. In the secondary reaction, a site-specific protease recognizes and cleaves non-phosphorylated FRET-peptides.
(§4) Phosphorylation of FRET-peptides suppresses cleavage by the Development Reagent. Cleavage disrupts FRET between the donor (i.e., coumarin) and acceptor (i.e., fluorescein) fluorophores on the FRET-peptide, whereas uncleaved, phosphorylated FRET-peptides maintain FRET. A ratiometric method, which calculates the ratio (the Emission Ratio) of donor emission to acceptor emission after excitation of the donor fluorophore at 400 nm, is used to quantitate reaction progress, as shown in the equation below: […]
(§5) A significant benefit of this ratiometric method for quantitating reaction progress is the elimination of well-to-well variations in FRET-peptide concentration and signal intensities. As a result, the assay yields very high Z′-factor values (>0.7) at a low percent phosphorylation. Both cleaved and uncleaved FRET-peptides contribute to the fluorescence signals and therefore to the Emission Ratio. The extent of phosphorylation of the FRET-peptide can be calculated from the Emission Ratio. The Emission Ratio will remain low if the FRET-peptide is phosphorylated (i.e., no kinase inhibition) and will he high if the FRET-peptide is non-phosphorylated (i.e., kinase inhibition).

Lck = Lck (Homo sapiens, UniProt P06239); assay: Z′-LYTE kinase inhibition assay, Lck; settings: for % inhibition: average of 2 runs
Sequence of Lck (P06239 whole entry): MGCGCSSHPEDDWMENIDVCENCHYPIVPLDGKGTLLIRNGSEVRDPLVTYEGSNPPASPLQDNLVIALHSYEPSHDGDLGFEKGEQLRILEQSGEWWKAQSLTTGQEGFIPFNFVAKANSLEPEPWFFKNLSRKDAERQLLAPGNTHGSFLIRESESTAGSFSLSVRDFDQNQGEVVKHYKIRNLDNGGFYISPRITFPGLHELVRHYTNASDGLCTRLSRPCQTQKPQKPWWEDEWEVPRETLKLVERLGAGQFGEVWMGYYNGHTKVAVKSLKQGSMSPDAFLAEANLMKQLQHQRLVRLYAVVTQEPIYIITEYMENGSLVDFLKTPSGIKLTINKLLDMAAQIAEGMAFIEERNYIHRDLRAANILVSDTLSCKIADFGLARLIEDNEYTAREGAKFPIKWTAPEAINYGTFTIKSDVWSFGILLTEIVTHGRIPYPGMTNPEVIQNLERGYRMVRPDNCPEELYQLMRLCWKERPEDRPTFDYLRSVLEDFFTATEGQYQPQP
Description: as §1, §2, §3, §4, §5

Lyn = Lyn (Homo sapiens, UniProt P07948); assay: Z′-LYTE kinase inhibition assay, Lyn; settings: for % inhibition: average of 2 runs
Description: as §1, §2, §3, §4, §5

Alk = Alk (Homo sapiens, UniProt Q9UM73); assay: Z′-LYTE kinase inhibition assay, Alk; settings: for % inhibition: average of 2 runs
Sequence of Alk (Q9UM73 19-1620): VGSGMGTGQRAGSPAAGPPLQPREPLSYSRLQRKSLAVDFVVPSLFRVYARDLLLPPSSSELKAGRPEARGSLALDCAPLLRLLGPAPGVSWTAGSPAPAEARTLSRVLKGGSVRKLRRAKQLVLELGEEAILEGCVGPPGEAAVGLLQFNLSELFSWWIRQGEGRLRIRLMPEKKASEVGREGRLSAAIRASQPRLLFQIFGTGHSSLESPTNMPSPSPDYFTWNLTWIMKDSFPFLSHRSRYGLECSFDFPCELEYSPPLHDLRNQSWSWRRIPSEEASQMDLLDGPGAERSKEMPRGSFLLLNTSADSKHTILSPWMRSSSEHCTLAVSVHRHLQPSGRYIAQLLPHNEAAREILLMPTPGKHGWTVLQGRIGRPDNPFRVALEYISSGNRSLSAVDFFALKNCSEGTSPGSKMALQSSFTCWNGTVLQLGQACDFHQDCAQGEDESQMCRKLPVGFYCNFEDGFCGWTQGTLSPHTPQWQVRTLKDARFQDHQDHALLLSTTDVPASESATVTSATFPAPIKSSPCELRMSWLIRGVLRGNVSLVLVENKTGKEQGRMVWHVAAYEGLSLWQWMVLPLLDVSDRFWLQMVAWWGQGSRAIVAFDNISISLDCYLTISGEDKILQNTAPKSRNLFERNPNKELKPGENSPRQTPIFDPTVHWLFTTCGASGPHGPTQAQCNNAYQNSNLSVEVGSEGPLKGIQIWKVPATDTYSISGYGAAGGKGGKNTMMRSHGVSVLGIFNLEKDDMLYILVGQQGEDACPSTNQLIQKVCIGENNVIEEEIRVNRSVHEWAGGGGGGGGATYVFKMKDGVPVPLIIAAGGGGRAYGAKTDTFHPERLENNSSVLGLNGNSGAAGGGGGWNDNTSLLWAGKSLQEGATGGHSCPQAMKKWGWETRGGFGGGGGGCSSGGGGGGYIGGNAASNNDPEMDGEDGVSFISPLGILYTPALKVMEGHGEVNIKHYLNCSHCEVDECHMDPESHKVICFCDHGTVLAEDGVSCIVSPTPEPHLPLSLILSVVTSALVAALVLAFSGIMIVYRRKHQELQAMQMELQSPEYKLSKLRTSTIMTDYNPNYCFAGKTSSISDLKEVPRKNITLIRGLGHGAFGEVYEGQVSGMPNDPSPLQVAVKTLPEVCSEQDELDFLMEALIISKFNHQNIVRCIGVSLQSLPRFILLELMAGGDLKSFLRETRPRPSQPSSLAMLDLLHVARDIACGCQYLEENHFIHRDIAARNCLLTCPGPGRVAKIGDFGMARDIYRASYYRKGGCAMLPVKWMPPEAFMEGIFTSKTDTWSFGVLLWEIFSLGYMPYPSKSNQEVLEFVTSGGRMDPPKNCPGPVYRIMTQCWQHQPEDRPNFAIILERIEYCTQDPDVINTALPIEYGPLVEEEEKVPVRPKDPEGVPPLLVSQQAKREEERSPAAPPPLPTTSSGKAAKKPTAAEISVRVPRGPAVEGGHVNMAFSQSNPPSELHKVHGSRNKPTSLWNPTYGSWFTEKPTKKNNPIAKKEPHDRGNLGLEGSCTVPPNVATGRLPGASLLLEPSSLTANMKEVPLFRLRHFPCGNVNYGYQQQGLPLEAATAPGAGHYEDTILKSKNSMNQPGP
Description: as §1, §2, §3, §4, §5

Ret = Ret (Homo sapiens, UniProt P07949); assay: Z′-LYTE kinase inhibition assay, Ret; settings: for % inhibition: average of 2 runs
Description: as §1, §2, §3, §4, §5

Fgr = Fgr (Homo sapiens, UniProt P09769); assay: Z′-LYTE kinase inhibition assay, Fgr; settings: for % inhibition: average of 2 runs
Sequence of Fgr (P09769 whole entry): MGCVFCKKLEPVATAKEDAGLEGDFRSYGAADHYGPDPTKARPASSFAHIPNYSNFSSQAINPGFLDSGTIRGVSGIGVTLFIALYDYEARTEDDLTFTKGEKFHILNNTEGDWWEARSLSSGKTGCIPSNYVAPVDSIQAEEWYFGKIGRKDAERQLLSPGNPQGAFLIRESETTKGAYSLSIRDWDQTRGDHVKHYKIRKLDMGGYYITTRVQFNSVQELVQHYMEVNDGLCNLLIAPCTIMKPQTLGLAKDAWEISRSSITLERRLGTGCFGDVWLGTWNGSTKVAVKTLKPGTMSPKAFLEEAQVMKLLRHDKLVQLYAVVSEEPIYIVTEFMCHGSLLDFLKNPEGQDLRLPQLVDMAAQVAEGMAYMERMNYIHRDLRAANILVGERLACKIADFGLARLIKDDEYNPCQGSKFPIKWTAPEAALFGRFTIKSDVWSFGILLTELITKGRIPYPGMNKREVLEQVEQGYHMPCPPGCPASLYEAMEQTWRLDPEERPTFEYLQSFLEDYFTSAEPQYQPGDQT
Description: as §1, §2, §3, §4, §5

Blk = Blk (Homo sapiens, UniProt P51451); assay: Z′-LYTE kinase inhibition assay, Blk; settings: for % inhibition: average of 2 runs
Description: as §1, §2, §3, §4, §5

Fyn = Fyn (Homo sapiens, UniProt P06241); assay: Z′-LYTE kinase inhibition assay, Fyn; settings: for % inhibition: average of 2 runs
Description: as §1, §2, §3, §4, §5

Her-2 = Her-2 (Homo sapiens, UniProt P04626); assay: Z′-LYTE kinase inhibition assay, Her-2; settings: average of 2 runs
Description: as §1, §2, §3, §4, §5

CSK = CSK (Homo sapiens, UniProt P41240); assay: Z′-LYTE kinase inhibition assay, CSK; settings: for % inhibition: average of 2 runs
Description: as §1, §2, §3, §4, §5

[1] = tested on: panel of 18 tyrosine kinases; assay: Kinase inhibitor profiling across a panel of tyrosine kinases (selectivity); settings: for S(40%): number of kinases inhibited greater than 40% divided by number of kinases tested (including Src)
Procedure: In order to probe the effect of atropisomeric conformation on kinase selectivity we subjected 1f, 2e, and 2f to kinase inhibitor profiling across a panel of tyrosine kinases at 1000 nM and 5000 nM (data for 2e shown in Scheme 4 below).
To analyze each analog's selectivity across the panel we turned to selectivity scores (Davis et al., Nat. Biotechnol. 2011, 29, 1046-51), simply the number of kinases inhibited above a certain threshold divided by the number of kinases evaluated. […] For example at 1000 nM 2e-(R) yielded an S(40%) of 0.11 while 2e-(S) gave an S(40%) of 0.16. […] Differences in selectivity between 2e-(R) and 2e-(S) at 5000 nM (4.5 times the IC50 of 2e-(S) toward Src) and for 5 at 1000 nM (6.25 times the IC50 of 5 toward Src) can be viewed graphically across tyrosine kinases (FIG. 3). Importantly, similar trends were also observed across each of the atropisomeric series tested.
as §1, §2, §3, §4, §5

pdgfr-a = pdgfr-a (Homo sapiens, UniProt P16234); assay: Z′-LYTE kinase inhibition assay, pdgfr-a; settings: for % inhibition: average of 2 runs
Sequence of pdgfr-a (P16234 24-1089): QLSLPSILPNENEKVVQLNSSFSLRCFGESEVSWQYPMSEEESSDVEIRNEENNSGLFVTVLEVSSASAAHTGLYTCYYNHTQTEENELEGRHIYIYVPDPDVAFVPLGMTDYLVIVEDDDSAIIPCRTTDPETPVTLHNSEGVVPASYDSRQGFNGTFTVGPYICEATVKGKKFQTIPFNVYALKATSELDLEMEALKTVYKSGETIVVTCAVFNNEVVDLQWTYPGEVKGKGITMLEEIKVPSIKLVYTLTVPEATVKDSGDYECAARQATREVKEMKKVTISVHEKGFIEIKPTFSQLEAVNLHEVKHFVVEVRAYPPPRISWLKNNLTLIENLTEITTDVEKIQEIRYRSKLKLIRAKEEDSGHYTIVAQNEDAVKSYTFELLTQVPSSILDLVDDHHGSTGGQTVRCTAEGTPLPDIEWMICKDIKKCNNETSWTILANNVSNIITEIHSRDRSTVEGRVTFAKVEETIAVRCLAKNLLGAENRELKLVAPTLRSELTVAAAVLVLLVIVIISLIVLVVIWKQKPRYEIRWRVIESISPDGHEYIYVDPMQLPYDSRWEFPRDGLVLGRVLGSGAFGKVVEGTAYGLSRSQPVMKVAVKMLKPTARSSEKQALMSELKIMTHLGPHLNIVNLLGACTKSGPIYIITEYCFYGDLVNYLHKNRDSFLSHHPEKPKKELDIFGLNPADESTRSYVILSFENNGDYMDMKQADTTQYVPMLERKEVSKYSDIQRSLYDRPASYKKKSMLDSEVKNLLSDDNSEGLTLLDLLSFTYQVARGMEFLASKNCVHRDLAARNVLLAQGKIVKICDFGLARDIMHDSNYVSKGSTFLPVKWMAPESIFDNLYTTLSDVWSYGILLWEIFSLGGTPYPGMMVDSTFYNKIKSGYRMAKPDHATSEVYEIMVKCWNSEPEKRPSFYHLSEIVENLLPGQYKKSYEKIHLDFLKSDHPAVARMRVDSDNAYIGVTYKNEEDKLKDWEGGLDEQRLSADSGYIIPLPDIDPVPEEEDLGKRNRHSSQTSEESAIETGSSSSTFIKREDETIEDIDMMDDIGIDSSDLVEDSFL
Description: as §1, §2, §3, §4, §5

pdgfr-b = pdgfr-b (Homo sapiens, UniProt P09619); assay: Z′-LYTE kinase inhibition assay, pdgfr-b; settings: for % inhibition: average of 2 runs
Description: as §1, §2, §3, §4, §5

Yes = Yes (Homo sapiens, UniProt P07947); assay: Z′-LYTE kinase inhibition assay, Yes; settings: for % inhibition: average of 2 runs
Sequence of Yes (P07947 whole entry): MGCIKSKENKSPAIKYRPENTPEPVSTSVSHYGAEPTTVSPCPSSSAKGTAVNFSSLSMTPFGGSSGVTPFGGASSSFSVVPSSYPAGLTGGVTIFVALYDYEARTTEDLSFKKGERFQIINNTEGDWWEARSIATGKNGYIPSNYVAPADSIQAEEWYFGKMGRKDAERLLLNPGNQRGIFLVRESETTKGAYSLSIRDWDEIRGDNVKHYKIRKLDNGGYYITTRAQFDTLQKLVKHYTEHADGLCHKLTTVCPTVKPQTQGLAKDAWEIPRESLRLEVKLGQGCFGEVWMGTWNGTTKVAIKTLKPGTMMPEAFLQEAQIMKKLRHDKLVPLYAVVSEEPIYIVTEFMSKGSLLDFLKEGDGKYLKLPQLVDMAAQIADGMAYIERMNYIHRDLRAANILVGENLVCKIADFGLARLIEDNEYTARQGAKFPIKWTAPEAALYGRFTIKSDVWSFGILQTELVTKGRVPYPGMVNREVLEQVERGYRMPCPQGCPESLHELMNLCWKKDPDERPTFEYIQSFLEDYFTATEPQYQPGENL
Description: as §1, §2, §3, §4, §5

BTK = BTK (Homo sapiens, UniProt Q06187); assay: Z′-LYTE kinase inhibition assay, BTK; settings: for % inhibition: average of 2 runs
Description: as §1, §2, §3, §4, §5

Kit = Kit (Homo sapiens, UniProt P10721); assay: Z′-LYTE kinase inhibition assay, Kit; settings: for % inhibition: average of 2 runs
Description: as §1, §2, §3, §4, §5

Abl = Abl (Homo sapiens, UniProt P00519); assay: Z′-LYTE kinase inhibition assay, Abl; settings: for % inhibition: average of 2 runs
Description: as §1, §2, §3, §4, §5

EGFR = EGFR (Homo sapiens, UniProt P00533); assay: Z′-LYTE kinase inhibition assay, EGFR; settings: for % inhibition: average of 2 runs
Description: as §1, §2, §3, §4, §5

Hck = Hck (Homo sapiens, UniProt P08631); assay: Z′-LYTE kinase inhibition assay, Hck; settings: for % inhibition: average of 2 runs
Sequence of Hck (P08631 whole entry): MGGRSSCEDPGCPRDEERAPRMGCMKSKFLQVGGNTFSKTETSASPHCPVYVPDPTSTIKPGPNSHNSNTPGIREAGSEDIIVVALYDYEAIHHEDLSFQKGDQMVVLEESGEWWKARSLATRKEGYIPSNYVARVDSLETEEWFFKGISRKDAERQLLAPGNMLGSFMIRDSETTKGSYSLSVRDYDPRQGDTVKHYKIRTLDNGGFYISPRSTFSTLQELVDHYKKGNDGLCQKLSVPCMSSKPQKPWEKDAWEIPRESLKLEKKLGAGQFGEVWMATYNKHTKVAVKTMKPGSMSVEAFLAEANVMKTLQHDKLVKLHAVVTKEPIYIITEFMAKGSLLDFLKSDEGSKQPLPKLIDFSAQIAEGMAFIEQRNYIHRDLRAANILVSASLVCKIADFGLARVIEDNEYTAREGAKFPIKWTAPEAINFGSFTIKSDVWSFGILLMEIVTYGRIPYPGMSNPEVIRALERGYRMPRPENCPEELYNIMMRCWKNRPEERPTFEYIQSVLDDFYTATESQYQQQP
Description: as §1, §2, §3, §4, §5

[2] = % inhibition 2e-(S)/% inhibition 2e-(R) at 5000 nM

Compound: COc1ccc(Cl)c(-c2c(Cl)n(C(C)(C)C)c3ncnc(N)c23)c1 (single isomer, unassigned) [2e-(S), 7-(tert-butyl)-6-chloro-5-(2-chloro-5-methoxyphenyl)-7H-pyrrolo[2,3d]pyrimidin-4-amine]
- IC50 of Kinase/IC50 of Yes (Src kinase; Src relative to Yes): 1.64
- pIC50 (Src kinase; Src, error is standard deviation): 5.92
- % inhibition (Lck; 1000 nM, 1 µM): 26%
- % inhibition (Lck; 5000 nM, 5 µM): 54%
- SIR (5000 nM) (Lck; [2]): 1.05
- % inhibition (Lyn; 1000 nM, 1 µM): 36%
- % inhibition (Lyn; 5000 nM, 5 µM): 75%
- SIR (5000 nM) (Lyn; [2]): 1.31
- % inhibition (Alk; 1000 nM, 1 µM): 5%
- % inhibition (Alk; 5000 nM, 5 µM): 7%
- SIR (5000 nM) (Alk; [2]): 0.38
- IC50 of Kinase/IC50 of Yes (Ret; Ret relative to Yes): 10.53
- % inhibition (Ret; Ret, 1000 nM, 1 µM): 14%
- % inhibition (Ret; Ret, 5000 nM): 32%
- % inhibition (Ret; Ret, 5000 nM, 5 µM): 32%
- SIR (5000 nM) (Ret; Ret, % inhibition 2e-(S)/% inhibition 2e-(R) at 5000 nM): 0.44
- pIC50 (Ret; Ret, error is standard deviation): 5.12
- % inhibition (Fgr; 1000 nM, 1 µM): 58%
- % inhibition (Fgr; 5000 nM, 5 µM): 81%
- SIR (5000 nM) (Fgr; [2]): 1.05
- % inhibition (Blk; 1000 nM, 1 µM): 21%
- % inhibition (Blk; 5000 nM, 5 µM): 47%
- SIR (5000 nM) (Blk; [2]): 1.46
- % inhibition (Fyn; 1000 nM, 1 µM): 26%
- % inhibition (Fyn; 5000 nM, 5 µM): 56%
- SIR (5000 nM) (Fyn; [2]): 1.27
- % inhibition (Her-2; 1000 nM, 1 µM): −7%
- % inhibition (Her-2; 5000 nM): 0%
- % inhibition (CSK; 1000 nM, 1 µM): 19%
- % inhibition (CSK; 5000 nM, 5 µM): 45%
- SIR (5000 nM) (CSK; [2]): 1.28
- S(40%) ([1]; 1000 nM): 0.16
- S(40%) ([1]; 5000 nM): 0.61
- increase of 5's inherent selectivity ([1]; less potent towards Ret): ~8 fold
- % inhibition (pdgfr-a; 1000 nM): 3%
- % inhibition (pdgfr-a; 5000 nM, 5 µM): 13%
- SIR (5000 nM) (pdgfr-a; [2]): 1.63
- % inhibition (pdgfr-b; 1000 nM, 1 µM): 13%
- % inhibition (pdgfr-b; 5000 nM, 5 µM): 16%
- SIR (5000 nM) (pdgfr-b; [2]): 1.23
- IC50 of Kinase/IC50 of Yes (Yes; Yes relative to Yes): 1
- % inhibition (Yes; Yes, 1000 nM): 53%
- % inhibition (Yes; Yes, 5000 nM, 5 µM): 77%
- SIR (5000 nM) (Yes; Yes, % inhibition 2e-(S)/% inhibition 2e-(R) at 5000 nM): 0.97
- pIC50 (Yes; Yes, error is standard deviation): 6.14
- % inhibition (BTK; 1000 nM, 1 µM): 18%
- % inhibition (BTK; 5000 nM, 5 µM): 54%
- SIR (5000 nM) (BTK; [2]): 1.86
- % inhibition (Kit; 1000 nM, 1 µM): 18%
- % inhibition (Kit; 5000 nM, 5 µM): 36%
- SIR (5000 nM) (Kit; [2]): 1.38
- IC50 of Kinase/IC50 of Yes (Abl; Abl relative to Yes): 1.96
- % inhibition (Abl; Abl, 1000 nM, 1 µM): 36%
- % inhibition (Abl; Abl, 5000 nM): 67%
- % inhibition (Abl; Abl, 5000 nM, 5 µM): 67%
- SIR (5000 nM) (Abl; Abl, % inhibition 2e-(S)/% inhibition 2e-(R) at 5000 nM): 2.57
- pIC50 (Abl; Abl, error is standard deviation): 5.84
- IC50 of Kinase/IC50 of Yes (EGFR; EGFR relative to Yes): >10.0
- % inhibition (EGFR; EGFR, 1000 nM, 1 µM): 10%
- % inhibition (EGFR; EGFR, 5000 nM, 5 µM): 21%
- pIC50 (EGFR; EGFR, error is standard deviation): < 5.00
- % inhibition (Hck; 1000 nM, 1 µM): 32%
- % inhibition (Hck; 5000 nM, 5 µM): 50%
- SIR (5000 nM) (Hck; [2]): 1.25
